Measured values: US11999727B2 (Tango Therapeutics, Inc., priority 2020, dated 2024)

Key:
[1] = system: HAP1 MTAP-deleted cell line; assay: SDMA in-cell western assay, HAP1 MTAP-deleted; format: cell-based; details: for IC50: Homo sapiens, HAP1, SDMA in-cell western, HAP1 MTAP-deleted, read-out: HAP 1 MTAP deleted IC50; for MTAP intact/deleted ratio: IC50 ratio HAP1 MTAP-intact / HAP1 MTAP-deleted, SDMA in-cell western
In short: (§1)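 MTAP-null vs endogenous-MTAP HAP1 isogenic cells; in-cell western SDMA readout; IC50 per line.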

[2] = system: HAP1 MTAP-deleted cell line; assay: Viability assay, MTAP-deleted cell line; format: cell-based; details: Homo sapiens, HAP1, viability assay, MTAP-deleted cell line; read-out: HAP1 MTAP deleted viability
Excerpt: Table 1 additionally indicates IC50 values in a viability assay for the MTAP-deleted cell line (column 10), indicating the effect of treatment with compound on cell survival.

[3] = system: HAP1 MTAP-intact cell line; assay: SDMA in-cell western assay, HAP1 MTAP-intact; format: cell-based; details: Homo sapiens, HAP1, SDMA in-cell western, HAP1 MTAP-intact; read-out: MTAP HAP1 intact IC50
In short: as §1

[4] = molecular target: T1, PRMT5 (Homo sapiens, UniProt O14744); assay: PRMT5 biochemical IC50 assay with MTA as cofactor; details: PRMT5, MTA as cofactor; read-out: MTA IC50
T1 construct: purchased Viva (custom protein)

[5] = molecular target: T1, PRMT5; assay: PRMT5 biochemical IC50 assay with SAM as cofactor; details: PRMT5, SAM as cofactor; read-out: SAM IC50
[6] = molecular target: T1, PRMT5; assay: PRMT5 biochemical IC50 assay with no cofactor; details: PRMT5, no cofactor; read-out: No Cofactor/rel IC50
Excerpt: Table 1 indicates IC50 values (μM) against PRMT5 for exemplary compounds in the presence of SAM as cofactor, with no cofactor, and with MTA as cofactor, respectively (columns 4-6). […] Ki values can be calculated from the IC50 values as described in the Examples section. As detailed in the Examples section, for the assay performed in the presence of SAM, IC50=Ki×1.5 (Ki=IC50/1.5).

T1 sequence (O14744 whole entry): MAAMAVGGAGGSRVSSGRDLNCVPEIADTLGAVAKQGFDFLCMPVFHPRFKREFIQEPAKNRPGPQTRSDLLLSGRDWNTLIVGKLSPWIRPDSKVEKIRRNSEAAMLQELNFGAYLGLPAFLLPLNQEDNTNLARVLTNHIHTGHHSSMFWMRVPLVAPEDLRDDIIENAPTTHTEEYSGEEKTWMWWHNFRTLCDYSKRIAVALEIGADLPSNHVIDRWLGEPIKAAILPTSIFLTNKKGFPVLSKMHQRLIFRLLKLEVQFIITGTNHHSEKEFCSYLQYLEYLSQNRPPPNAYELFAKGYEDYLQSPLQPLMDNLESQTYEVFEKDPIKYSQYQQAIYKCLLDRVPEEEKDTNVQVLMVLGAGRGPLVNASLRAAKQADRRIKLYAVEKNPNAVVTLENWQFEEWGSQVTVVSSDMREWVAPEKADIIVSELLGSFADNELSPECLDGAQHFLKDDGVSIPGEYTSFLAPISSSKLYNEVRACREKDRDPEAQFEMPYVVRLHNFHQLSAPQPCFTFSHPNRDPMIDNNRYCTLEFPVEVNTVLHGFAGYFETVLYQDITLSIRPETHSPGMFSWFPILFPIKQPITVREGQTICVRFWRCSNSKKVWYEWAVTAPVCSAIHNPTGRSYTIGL
T1 sequence (Q9BQA1 whole entry partner): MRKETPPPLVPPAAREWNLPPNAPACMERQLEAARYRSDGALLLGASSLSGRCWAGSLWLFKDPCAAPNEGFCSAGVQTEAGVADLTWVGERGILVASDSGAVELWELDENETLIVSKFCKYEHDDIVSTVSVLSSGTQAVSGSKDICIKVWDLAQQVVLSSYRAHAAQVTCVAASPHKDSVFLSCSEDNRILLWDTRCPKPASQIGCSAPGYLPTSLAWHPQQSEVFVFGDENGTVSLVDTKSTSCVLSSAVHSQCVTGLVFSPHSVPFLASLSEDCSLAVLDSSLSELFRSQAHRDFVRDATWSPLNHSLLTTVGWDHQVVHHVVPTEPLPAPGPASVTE

| IC50 [1] | IC50 [3] | IC50 [4] | IC50 [5] | IC50 [6] | Structure (SMILES) | MTAP intact/deleted ratio [1] | IC50 [2] |
| --- | --- | --- | --- | --- | --- | --- | --- |
| < 100 nM | 100 to 1000 nM | < 50 nM | 50 to 500 nM | < 50 nM | CCc1cc(NC(=O)C(=O)N2C[C@@H](C)CC[C@@H]2c2ccc(NC(C)=O)cc2)cnc1N (single isomer, unassigned) [Compound 890] | A (an IC50 ratio greater than or equal to 10 fold) | < 1000 nM |
| > 1000 nM | > 1000 nM | > 500 nM | > 500 nM | > 500 nM | CCc1cc(NC(=O)C(=O)N2C[C@H](C)CC[C@H]2c2ccc(NC(C)=O)cc2)cnc1N (single isomer, unassigned) [Compound 893] | B (an IC50 ratio greater than or equal to 3 fold but lower than 10 fold) | > 10000 nM |
| < 100 nM | > 1000 nM | < 50 nM | 50 to 500 nM | 50 to 500 nM | COc1ncc(NC(=O)C(=O)N2C[C@H](C)CC[C@H]2c2ccn(-c3cc[nH]n3)n2)cc1C(N)=O (single isomer, unassigned) [Compound 894] | A (an IC50 ratio greater than or equal to 10 fold) | 1000 to 10000 nM |
| < 100 nM | > 1000 nM | < 50 nM | 50 to 500 nM | 50 to 500 nM | COc1ncc(NC(=O)C(=O)N2C[C@@H](C)C(F)(F)C[C@@H]2c2ccc(C)nc2)cc1C(N)=O (single isomer, unassigned) [Compound 908] | A (an IC50 ratio greater than or equal to 10 fold) | 1000 to 10000 nM |
| > 1000 nM | > 1000 nM | > 500 nM | > 500 nM | > 500 nM | COc1ncc(NC(=O)C(=O)N2C[C@@H](C)CC[C@@H]2c2ccc(NC(C)=O)nc2)cc1C(N)=O (single isomer, unassigned) [Compound 910] | B (an IC50 ratio greater than or equal to 3 fold but lower than 10 fold) | > 10000 nM |
| < 100 nM | 100 to 1000 nM | < 50 nM | 50 to 500 nM | < 50 nM | COc1ncc(NC(=O)C(=O)N2C[C@@H](C)CC[C@@H]2c2ccc3cnccc3c2)cc1C(N)=O (single isomer, unassigned) [Compound 914] | A (an IC50 ratio greater than or equal to 10 fold) | < 1000 nM |
| < 100 nM | 100 to 1000 nM | < 50 nM | 50 to 500 nM | < 50 nM | CC(=O)Nc1ccc([C@H]2CC[C@H](C)CN2C(=O)C(=O)Nc2cnc(N)c(C)c2)cn1 (single isomer, unassigned) [Compound 915] | A (an IC50 ratio greater than or equal to 10 fold) | 1000 to 10000 nM |

Further lines, the compound ahead of its results:

| Structure (SMILES) | IC50 [1] | IC50 [3] | IC50 [4] | IC50 [5] | IC50 [6] | MTAP intact/deleted ratio [1] | IC50 [2] |
| --- | --- | --- | --- | --- | --- | --- | --- |
| CCc1cc(NC(=O)C(=O)N2C[C@@H](C)CC[C@@H]2c2ccc3sc(NC)nc3c2)cnc1N (single isomer, unassigned) [Compound 884] | < 100 nM | 100 to 1000 nM | < 50 nM | 50 to 500 nM | < 50 nM | A (an IC50 ratio greater than or equal to 10 fold) | < 1000 nM |
| Cc1cc(NC(=O)C(=O)N2C[C@@H](C)CC[C@@H]2c2ccc(-c3cncs3)cc2)cnc1N (single isomer, unassigned) [Compound 887, N-(6-amino-5-methylpyridin-3-yl)-2-(5-methyl-2-(4-(thiazol-5-yl)phenyl)piperidin-1-yl)-2-oxoacetamide] | < 100 nM | < 100 nM | < 50 nM | 50 to 500 nM | 50 to 500 nM | B (an IC50 ratio greater than or equal to 3 fold but lower than 10 fold) | < 1000 nM |
| Cc1cc(NC(=O)C(=O)N2C[C@H](C)CC[C@H]2c2cccc(S(C)(=O)=O)c2)cnc1N (single isomer, unassigned) [Compound 895] | < 100 nM | 100 to 1000 nM | < 50 nM | 50 to 500 nM | 50 to 500 nM | B (an IC50 ratio greater than or equal to 3 fold but lower than 10 fold) | 1000 to 10000 nM |
| CCc1cc(NC(=O)C(=O)N2C[C@H](C)CC[C@H]2c2ccc3sc(NC)nc3c2)cnc1N (single isomer, unassigned) [Compound 896] | > 1000 nM | > 1000 nM | > 500 nM | > 500 nM | > 500 nM | B (an IC50 ratio greater than or equal to 3 fold but lower than 10 fold) | > 10000 nM |
| C[C@H]1CC[C@H](c2cccc3[nH]ncc23)N(C(=O)C(=O)Nc2cncc(C(N)=O)c2)C1 (single isomer, unassigned) [Compound 897] | < 100 nM | > 1000 nM | < 50 nM | 50 to 500 nM | 50 to 500 nM | A (an IC50 ratio greater than or equal to 10 fold) | 1000 to 10000 nM |
| C[C@@H]1CC[C@@H](c2ccn(-c3cc[nH]n3)n2)N(C(=O)C(=O)Nc2cncc(C(N)=O)c2)C1 (single isomer, unassigned) [Compound 899] | 100 to 1000 nM | > 1000 nM | < 50 nM | 50 to 500 nM | 50 to 500 nM | A (an IC50 ratio greater than or equal to 10 fold) | 1000 to 10000 nM |
| Cc1cc(NC(=O)C(=O)N2C[C@H](C)CC[C@H]2c2ccc(-c3cncs3)cc2)cnc1N (single isomer, unassigned) [Compound 900, N-(6-amino-5-methylpyridin-3-yl)-2-(5-methyl-2-(4-(thiazol-5-yl)phenyl)piperidin-1-yl)-2-oxoacetamide] | > 1000 nM | > 1000 nM | > 500 nM | > 500 nM | > 500 nM | C (an IC50 ratio of less than 3 fold) | > 10000 nM |
| Cc1cc(NC(=O)C(=O)N2C[C@@H](C)CC[C@@H]2c2cccc(S(C)(=O)=O)c2)cnc1N (single isomer, unassigned) [Compound 901] | > 1000 nM | > 1000 nM | > 500 nM | > 500 nM | > 500 nM | C (an IC50 ratio of less than 3 fold) | > 10000 nM |
| CCc1cc(NC(=O)C(=O)N2C[C@@H](C)CC[C@@H]2c2ccc(NS(C)(=O)=O)cc2)cnc1N (single isomer, unassigned) [Compound 902] | < 100 nM | 100 to 1000 nM | < 50 nM | 50 to 500 nM | < 50 nM | A (an IC50 ratio greater than or equal to 10 fold) | < 1000 nM |
| Cc1ncc(NC(=O)C(=O)N2C[C@@H](C)CC[C@@H]2c2ccc3c(c2)CCC(=O)N3)cc1C(F)F (single isomer, unassigned) [Compound 903] | > 1000 nM | > 1000 nM | > 500 nM | > 500 nM | > 500 nM | B (an IC50 ratio greater than or equal to 3 fold but lower than 10 fold) | > 10000 nM |
| CCc1cc(NC(=O)C(=O)N2C[C@@H](C)CC[C@@H]2c2ccn(-c3cc[nH]n3)n2)cnc1N (single isomer, unassigned) [Compound 913] | > 1000 nM | > 1000 nM | > 500 nM | > 500 nM | > 500 nM | C (an IC50 ratio of less than 3 fold) | > 10000 nM |
